Measured values from paper PMC4609575 (The international journal of biochemistry & cell biology, 2010).
Where two headings read alike, the source gives them in different places.

Assays:
hα3β4 AChR [1] = biological target: T1, hα3β4 AChR (Homo sapiens, UniProt P30926+P32297); test: cell-based; format: cell-based
hα3β4 AChR [2] = biological target: T1, hα3β4 AChR; format: binding; settings: for ΔG^20: 293 K; for Ea (energy of activation of the dissociation process): Arrhenius plot; for ΔH°: van't Hoff plot
hα3β4 AChR [3] = biological target: T1, hα3β4 AChR; test: Binding kinetics by non-linear chromatography on the CMAC-hα3β4 AChR column
hα3β4 AChR [4] = biological target: T1, hα3β4 AChR; format: binding; settings: for nH: radioligand [3H]ibogaine
hα3β4 AChR [5] = biological target: T1, hα3β4 AChR; format: binding; settings: for nH: radioligand [3H]TCP
rat α3β4 AChRs = settings: 86Rb+ efflux, rat α3β4 AChRs ref Hernandez et al., 2000; cited from earlier work
hα3β4 AChR [6] = biological target: T1, hα3β4 AChR; test: Equilibrium binding of [3H]ibogaine to hα3β4 AChR membranes
[7] = Epibatidine treated column (desensitized state)
[8] = κ-BTx treated column (resting state)
[9] = AChR in the resting state (κ-BTx), 20 °C
[10] = Desensitized state (1 µM (−)-nicotine)

T1 sequence (P32297 32-505): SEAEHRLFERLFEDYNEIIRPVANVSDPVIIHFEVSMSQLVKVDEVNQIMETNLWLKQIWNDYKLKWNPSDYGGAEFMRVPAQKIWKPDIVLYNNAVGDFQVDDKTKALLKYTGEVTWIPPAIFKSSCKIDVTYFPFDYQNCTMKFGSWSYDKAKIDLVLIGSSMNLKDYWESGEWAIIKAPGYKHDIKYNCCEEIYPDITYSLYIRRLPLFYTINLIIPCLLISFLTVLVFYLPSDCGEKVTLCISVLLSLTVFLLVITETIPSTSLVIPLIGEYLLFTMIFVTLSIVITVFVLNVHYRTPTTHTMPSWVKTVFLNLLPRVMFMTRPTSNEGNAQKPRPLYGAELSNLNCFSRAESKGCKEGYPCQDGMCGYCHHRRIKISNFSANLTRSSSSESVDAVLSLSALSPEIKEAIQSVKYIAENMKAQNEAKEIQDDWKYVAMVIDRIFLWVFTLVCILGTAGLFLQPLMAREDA
T1 sequence (P30926 22-498): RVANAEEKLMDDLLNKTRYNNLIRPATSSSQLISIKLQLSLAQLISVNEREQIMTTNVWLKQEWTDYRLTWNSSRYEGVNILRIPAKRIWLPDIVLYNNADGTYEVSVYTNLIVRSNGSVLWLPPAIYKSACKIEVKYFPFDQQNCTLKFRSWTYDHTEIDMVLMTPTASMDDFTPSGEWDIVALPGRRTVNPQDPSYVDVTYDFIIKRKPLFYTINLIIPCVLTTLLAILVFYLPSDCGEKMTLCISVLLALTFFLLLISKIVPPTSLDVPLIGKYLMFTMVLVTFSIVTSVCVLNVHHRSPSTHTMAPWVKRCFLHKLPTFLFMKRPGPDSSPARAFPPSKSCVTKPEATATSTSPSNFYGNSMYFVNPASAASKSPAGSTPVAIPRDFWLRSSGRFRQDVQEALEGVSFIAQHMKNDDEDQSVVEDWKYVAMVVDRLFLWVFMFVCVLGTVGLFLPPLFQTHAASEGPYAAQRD

For “7-ethyl-6,2,7,8,9,10,12,13-octahydro-2-methoxy-6,9-methano 5H-pyrido(1′,2′:1,2-azepine (4,5-)indole) [Ibogaine]”, the “nH (Hill coefficient)” value (hα3β4 AChR [1]) was 1.24 ± 0.07, the “fold higher potency than PCP in inhibiting (±)-epibatidine-induced Ca2+ influx” value (hα3β4 AChR [1]; ibogaine IC50 versus PCP IC50) was ~ 9 fold and the “ΔH^+ (enthalpy change of the transition state)” value (hα3β4 AChR [2]; [7]) was 12.7 ± 1.8 kJmol^−1. The “−TΔS°” value (hα3β4 AChR [2]; [7]) was −29.4 ± 0.3 kJmol-^1, the “ΔG^20” value (hα3β4 AChR [2]; [7]) was −37.0 ± 0.1 kJmol^−1 and the “Ea (energy of activation of the dissociation process)” value (hα3β4 AChR [2]; [7]) was 15.1 ± 1.8 kJmol^−1. The “ΔH°” value (hα3β4 AChR [2]; [7]) was -1.82 ± 0.072 kcal/mol, the “ΔH^+ (enthalpy change of the transition state)” value (hα3β4 AChR [2]; [8]) was 11.2 ± 0.7 kJmol^−1 and the “−TΔS°” value (hα3β4 AChR [2]; [8]) was −26.2 ± 0.7 kJmol-^1. For the same compound, the “ΔG^20” value (hα3β4 AChR [2]; [8]) was −36.7 ± 0.1 kJmol^−1, the “Ea (energy of activation of the dissociation process)” value (hα3β4 AChR [2]; [8]) was 13.7 ± 0.7 kJmol^−1 and the “ΔH°” value (hα3β4 AChR [2]; [8]) was -2.51 ± 0.17 kcal/mol. For the same compound, the koff (hα3β4 AChR [3]) was 0.078 ± 0.002 s⁻¹, the kon (hα3β4 AChR [3]) was 300000 ± 10000 M⁻¹ s⁻¹ and the ΔG (hα3β4 AChR [3]) was -8.82 ± 0.024 kcal/mol. The “Ka (association constant)” value (hα3β4 AChR [3]; [9]) was 3.47 ± 0.12 µM⁻¹, the koff (hα3β4 AChR [3]; [9]) was 0.088 ± 0.001 s⁻¹ and the kon (hα3β4 AChR [3]; AChR in the resting state (κ-BTx), kon = koff·Ka) was 310000 ± 20000 M⁻¹ s⁻¹. For the same compound, the “association rate constants kon (order of magnitude)” value (hα3β4 AChR [3]; both conformational states) was ~ 10^5 M^−1 s^−1, the nH (hα3β4 AChR [4]; [10]) was 1.01 ±0.11 and the nH (hα3β4 AChR [4]; Resting state) was 0.82 ± 0.08. For the same compound, the “fold higher affinity for desensitized/nicotine-bound than resting/no ligand AChR” value (hα3β4 AChR [4]; [3H]ibogaine competition, p < 0.05) was ~ 2.8 fold, the nH (hα3β4 AChR [5]; [10]) was 0.95 ±0.13 and the nH (hα3β4 AChR [5]; Resting state) was 0.79 ± 0.13. For the same compound, the “fold higher affinity for desensitized than resting AChR” value (hα3β4 AChR [5]; [3H]TCP competition) was ~ 2.6 fold.
With `c1ccc(C2(N3CCCCC3)CCCCC2)cc1` [PCP, phencyclidine] the IC50 (hα3β4 AChR [1]) was 8.5 ± 1.4 µM, the “fold higher inhibitory potency in the hα3β4 AChR than in the muscle AChR” value (hα3β4 AChR [1]; compared with muscle AChR value of ref Fryer and Lukas, 1999) was ~ 2 fold and the “nH (Hill coefficient)” value (hα3β4 AChR [1]; inhibition of (±)-epibatidine-induced Ca2+ influx, HEK293-hα3β4 cells) was 0.92 ± 0.02. The IC50 (rat α3β4 AChRs) was 7 ± 1.3 µM, the Ki (hα3β4 AChR [4]) was 17 ± 2 µM and the nH (hα3β4 AChR [4]; Resting state) was 0.88 ± 0.07. The “times lower affinity compared to ibogaine” value (hα3β4 AChR [4]; resting hα3β4 AChR, Table 2 values) was 10–16 times, the Ki (hα3β4 AChR [5]) was 10 ± 2 µM and the nH (hα3β4 AChR [5]; Resting state) was 0.87 ± 0.10.
For `Clc1ccc(C2CC3CCC2N3)cn1` (racemic) [(±)-epibatidine, (±)-Epibatidine], the “nH (Hill coefficient)” value (hα3β4 AChR [1]; activation of the hα3β4 AChR, Ca2+ influx) was 1.21 ± 0.06.
For [^3H]ibogaine, the “specific activity (number of binding sites, Bmax)” value (hα3β4 AChR [6]; HEK293-hα3β4 membranes, x-intersect of Scatchard plot) was 3.9 ± 0.4 pmol/mg protein and the Kd (hα3β4 AChR [6]; resting (no ligand) state, Rosenthal-Scatchard plot) was 0.46 ± 0.06 µM.
